From patent US10023544B2, “Heterocyclic compound” (Takeda Pharmaceutical Company Limited, priority 2014, dated 2018)
Counter-ions that a name gives are not always drawn.

Target: T1, Human recombinant enteropeptidase (Homo sapiens, UniProt P98073)
T1 construct: purchased ITSI-Biosciences, LLC #REN-260
Assay: Human enteropeptidase inhibitory activity
Assay type: biochemical
Conditions: 3.3 uM test compound; fluorescence intensity 2 hours after start of reaction; read-out: Inhibition rate at 3.3 uM (%)
Protocol: Human recombinant enteropeptidase (#REN-260, ITSI-Biosciences, LLC) was diluted with an assay buffer (50 mM Tricine (pH 8.0), 0.01 (w/v) % Tween 20, 10 mM CaCl2) to prepare a 24 mU/mL enzyme solution. Subsequently, 5FAM-Abu-Gly-Asp-Asp-Asp-Lys-Ile-Val-Gly-Gly-Lys(CPQ2)-Lys-Lys-NH2 (purity: 97.2%, CPC Scientific, Inc.) produced according to a synthesis method known per se was diluted with an assay buffer to prepare a 2.1 uM (“u” represents “micro”) substrate solution. Each test compound was dissolved in DMSO to prepare a 1 mM solution, which was then diluted 100-fold with an assay buffer to prepare a compound solution. The compound solution (5 uL/well) and the substrate solution (5 uL/well) were added to a 384-well black plate (#784076, Greiner Bio-One) and mixed. Then, the enzyme solution (5 uL/well) was added to the plate and mixed to start reaction. The fluorescence intensity was measured at an excitation wavelength of 485 nm and a fluorescence wavelength of 535 nm using a fluorescence plate reader EnVision (PerkinElmer Inc.). Also, the same reaction as above was performed except that the test compound was not added (test compound non-supplemented group). In addition, the same reaction as above was performed except that neither the test compound nor the enzyme was added (control group). The inhibition rate was calculated from the fluorescence intensity 2 hours after the start of the reaction according to the following equation: Inhibition rate (%)=(1−(Fluorescence intensity of the test compound supplemented group−Fluorescence intensity of the control group)/(Fluorescence intensity of the test compound non-supplemented group−Fluorescence intensity of the control group))×100

T1 sequence (P98073 whole entry): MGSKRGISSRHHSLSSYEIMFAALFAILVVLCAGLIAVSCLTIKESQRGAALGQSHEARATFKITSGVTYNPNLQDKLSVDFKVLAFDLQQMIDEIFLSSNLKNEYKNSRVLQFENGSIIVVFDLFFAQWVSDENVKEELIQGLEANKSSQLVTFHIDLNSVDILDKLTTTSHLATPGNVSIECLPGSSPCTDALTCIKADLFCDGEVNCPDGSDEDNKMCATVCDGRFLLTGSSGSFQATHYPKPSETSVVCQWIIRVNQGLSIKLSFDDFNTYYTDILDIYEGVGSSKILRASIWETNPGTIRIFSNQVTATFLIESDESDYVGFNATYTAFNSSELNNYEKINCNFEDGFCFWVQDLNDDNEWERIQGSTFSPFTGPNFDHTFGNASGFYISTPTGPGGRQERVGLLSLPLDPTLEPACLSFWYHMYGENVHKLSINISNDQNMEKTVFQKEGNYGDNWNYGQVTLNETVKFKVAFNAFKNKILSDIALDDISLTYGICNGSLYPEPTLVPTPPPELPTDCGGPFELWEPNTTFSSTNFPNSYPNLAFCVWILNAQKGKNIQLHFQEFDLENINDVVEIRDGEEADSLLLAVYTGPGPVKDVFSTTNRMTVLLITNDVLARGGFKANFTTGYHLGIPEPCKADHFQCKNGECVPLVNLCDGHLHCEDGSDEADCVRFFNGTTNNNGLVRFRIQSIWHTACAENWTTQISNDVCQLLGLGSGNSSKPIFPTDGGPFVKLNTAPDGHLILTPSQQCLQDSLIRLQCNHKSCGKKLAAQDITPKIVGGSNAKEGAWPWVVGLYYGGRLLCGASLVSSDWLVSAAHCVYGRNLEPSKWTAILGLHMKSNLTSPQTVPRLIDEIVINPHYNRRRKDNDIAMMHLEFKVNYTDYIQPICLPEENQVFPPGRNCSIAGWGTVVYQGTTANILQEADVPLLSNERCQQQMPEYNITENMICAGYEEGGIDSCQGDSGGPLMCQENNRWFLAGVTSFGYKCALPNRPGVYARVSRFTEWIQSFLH

inhibition at 3.3 µM | SMILES
100% | N=C(N)Nc1ccc(C(=O)Oc2ccc(CCC(=O)N[C@@H](CCC(N)=O)C(=O)O)c(C3=NOC(CC(=O)O)(CC(=O)O)C3)c2)cc1 [Example 29, N^2-(3-(2-(5,5-bis(carboxymethyl)-4,5-dihydro-1,2-oxazol-3-yl)-4-((4-carbamimidamidobenzoyl)oxy)phenyl)propanoyl)-L-glutamine]
101% | N=C(N)Nc1ccc(C(=O)Oc2ccc(-c3ccccc3)c(C3=NOC(CC(=O)O)(C(=O)O)C3)c2)cc1 (stereo not drawn) [Example 9, 3-(4-((4-carbamimidamidobenzoyl)oxy)biphenyl-2-yl)-5-(carboxymethyl)-4,5-dihydro-1,2-oxazole-5-carboxylic acid]
101% | Cc1ccc(OC(=O)c2ccc(NC(=N)N)cc2)cc1C1=NOC(CC(=O)O)(C(=O)O)C1 (stereo not drawn) [Example 3, 3-(5-((4-Carbamimidamidobenzoyl)oxy)-2-methylphenyl)-5-(carboxymethyl)-4,5-dihydro-1,2-oxazole-5-carboxylic acid trifluoroacetate]
101% | N=C(N)Nc1ccc(C(=O)Oc2ccc(C3CCN(CCC(=O)O)CC3)c(C3=NOC(CC(=O)O)(CC(=O)O)C3)c2)cc1 [Example 22, 3-(4-(2-(5,5-Bis(carboxymethyl)-4,5-dihydro-1,2-oxazol-3-yl)-4-((4-carbamimidamidobenzoyl)oxy)phenyl)piperidin-1-yl)propanoic acid ditrifluoroacetate]
100% | N=C(N)Nc1ccc(C(=O)Oc2ccc(CCC(=O)NCC(=O)O)c(C3=NOC(CC(=O)O)(CC(=O)O)C3)c2)cc1 [Example 30, N-(3-(2-(5,5-bis(carboxymethyl)-4,5-dihydro-1,2-oxazol-3-yl)-4-((4-carbamimidamidobenzoyl)oxy)phenyl)propanoyl)glycine]
101% | N=C(N)Nc1ccc(C(=O)Oc2ccc(CCC(=O)O)c(C3=NOC(CC(=O)O)(C(=O)O)C3)c2)cc1 (stereo not drawn) [Example 15, 3-(5-((4-carbamimidamidobenzoyl)oxy)-2-(2-carboxyethyl)phenyl)-5-(carboxymethyl)-4,5-dihydro-1,2-oxazole-5-carboxylic acid]
100% | N=C(N)Nc1ccc(C(=O)Oc2ccc(C3CCN(C(=O)CCC(=O)N[C@@H](CC(=O)O)C(=O)O)CC3)c(C3=NOC(CC(=O)O)(CC(=O)O)C3)c2)cc1 [Example 21, N-(4-(4-(2-(5,5-bis(carboxymethyl)-4,5-dihydro-1,2-oxazol-3-yl)-4-((4-carbamimidamidobenzoyl)oxy)phenyl)piperidin-1-yl)-4-oxobutanoyl)-L-aspartic acid]
100% | CN(CC(=O)O)C(=O)CCc1ccc(OC(=O)c2ccc(NC(=N)N)cc2)cc1C1=NOC(CC(=O)O)(CC(=O)O)C1 [Example 31, N-(3-(2-(5,5-bis(carboxymethyl)-4,5-dihydro-1,2-oxazol-3-yl)-4-((4-carbamimidamidobenzoyl)oxy)phenyl)propanoyl)-N-methylglycine]
101% | CC(C)(C)C1CCC(c2cc(OC(=O)c3ccc(NC(=N)N)cc3)cc(C3=NOC(CC(=O)O)(C(=O)O)C3)c2)CC1 (stereo not drawn) [Example 12, 3-(3-(4-tert-butylcyclohexyl)-5-((4-carbamimidamidobenzoyl)oxy)phenyl)-5-(carboxymethyl)-4,5-dihydro-1,2-oxazole-5-carboxylic acid (trans or cis form)]
100% | Cc1cc(OC(=O)c2ccc(NC(=N)N)cc2)cc(C2=NOC(CC(=O)O)(C(=O)O)C2)c1 (stereo not drawn) [Example 11, 3-(3-((4-Carbamimidamidobenzoyl)oxy)-5-methylphenyl)-5-(carboxymethyl)-4,5-dihydro-1,2-oxazole-5-carboxylic acid trifluoroacetate]
100% | N=C(N)Nc1ccc(C(=O)Oc2ccc(CCC(=O)N[C@@H](CC(=O)O)C(=O)O)c(C3=NOC(CC(=O)O)(C(=O)O)C3)c2)cc1 (stereo partly drawn) [Example 18, N-(3-(4-((4-Carbamimidamidobenzoyl)oxy)-2-(5-carboxy-5-(carboxymethyl)-4,5-dihydro-1,2-oxazol-3-yl)phenyl)propanoyl)-L-aspartic acid trifluoroacetate]
101% | N=C(N)Nc1ccc(C(=O)Oc2ccc(C3CCCCC3)c(C3=NOC(CC(=O)O)(C(=O)O)C3)c2)cc1 (stereo not drawn) [Example 8, 3-(5-((4-Carbamimidamidobenzoyl)oxy)-2-cyclohexylphenyl)-5-(carboxymethyl)-4,5-dihydro-1,2-oxazole-5-carboxylic acid trifluoroacetate]
100% | N=C(N)Nc1ccc(C(=O)Oc2cccc(C3=NOC(CC(=O)O)(CC(=O)O)C3)c2)cc1 [Example 6, 2,2′-(3-(3-((4-Carbamimidamidobenzoyl)oxy)phenyl)-4,5-dihydro-1,2-oxazole-5,5-diyl)diacetic acid]
100% | Cc1c(OC(=O)c2ccc(NC(=N)N)cc2)cccc1C1=NOC(CC(=O)O)(C(=O)O)C1 (stereo not drawn) [Example 16, 3-(3-((4-carbamimidamidobenzoyl)oxy)-2-methylphenyl)-5-(carboxymethyl)-4,5-dihydro-1,2-oxazole-5-carboxylic acid]
100% | N=C(N)Nc1ccc(C(=O)Oc2ccc(CCC(=O)N[C@@H](CC(=O)O)C(=O)O)c(C3=NOC(CC(=O)O)(CC(=O)O)C3)c2)cc1 [Example 20, N-(3-(2-(5,5-bis(carboxymethyl)-4,5-dihydro-1,2-oxazol-3-yl)-4-((4-carbamimidamidobenzoyl)oxy)phenyl)propanoyl)-L-aspartic acid]
100% | N=C(N)Nc1ccc(C(=O)Oc2ccc(CCC(=O)N3CCOCC3)c(C3=NOC(CC(=O)O)(CC(=O)O)C3)c2)cc1 [Example 26, 2,2′-(3-(5-((4-carbamimidamidobenzoyl)oxy)-2-(3-(morpholin-4-yl)-3-oxopropyl)phenyl)-4,5-dihydro-1,2-oxazole-5,5-diyl) diacetic acid]
101% | N=C(N)Nc1ccc(C(=O)Oc2ccc(CCC(=O)NCCS(=O)(=O)O)c(C3=NOC(CC(=O)O)(CC(=O)O)C3)c2)cc1 [Example 34, 2,2′-(3-(5-((4-Carbamimidamidobenzoyl)oxy)-2-(3-oxo-3-((2-sulfoethyl)amino)propyl)phenyl)-4,5-dihydro-1,2-oxazole-5,5-diyl)diacetic acid]
101% | N=C(N)Nc1ccc(C(=O)Oc2cccc(C3=NOC(CCC(=O)O)(CCC(=O)O)C3)c2)cc1 [Example 4, 3,3′-(3-(3-((4-carba-mimidamidobenzoyl)oxy)phenyl)-4,5-dihydro-1,2-oxazole-5,5-diyl)dipropanoic acid]
101% | N=C(N)Nc1ccc(C(=O)Oc2cc(CCC(=O)N[C@@H](CC(=O)O)C(=O)O)cc(C3=NOC(CC(=O)O)(C(=O)O)C3)c2)cc1 (stereo partly drawn) [Example 19, N-(3-(3-((4-carbamimidamidobenzoyl)oxy)-5-(5-carboxy-5-(carboxymethyl)-4,5-dihydro-1,2-oxazol-3-yl)phenyl)propanoyl)-L-aspartic acid]
100% | N=C(N)Nc1ccc(C(=O)Oc2ccc(CCC(=O)N3CCS(=O)(=O)CC3)c(C3=NOC(CC(=O)O)(CC(=O)O)C3)c2)cc1 [Example 25, 2,2′-(3-(5-((4-Carbamimidamidobenzoyl)oxy)-2-(3-(1,1-dioxidothiomorpholin-4-yl)-3-oxopropyl)phenyl)-4,5-dihydro-1,2-oxazole-5,5-diyl)diacetic acid]
100% | N=C(N)Nc1ccc(C(=O)Oc2ccc(CCC(=O)N[C@@H](CC(N)=O)C(=O)O)c(C3=NOC(CC(=O)O)(CC(=O)O)C3)c2)cc1 [Example 28, N^2-(3-(2-(5,5-bis(carboxymethyl)-4,5-dihydro-1,2-oxazol-3-yl)-4-((4-carbamimidamidobenzoyl)oxy)phenyl)propanoyl)-L-asparagine]
101% | CC(C)(C)C1CCC(c2ccc(OC(=O)c3ccc(NC(=N)N)cc3)cc2C2=NOC(CC(=O)O)(C(=O)O)C2)CC1 (stereo not drawn) [Example 10, 3-(2-(4-tert-butylcyclohexyl)-5-((4-carbamimidamidobenzoyl)oxy)phenyl)-5-(carboxymethyl)-4,5-dihydro-1,2-oxazole-5-carboxylic acid]
100% | N=C(N)Nc1ccc(C(=O)Oc2ccc(CCC(=O)N3CCC(C(=O)O)CC3)c(C3=NOC(CC(=O)O)(CC(=O)O)C3)c2)cc1 [Example 33, 1-(3-(2-(5,5-Bis(carboxymethyl)-4,5-dihydro-1,2-oxazol-3-yl)-4-((4-carbamimidamidobenzoyl)oxy)phenyl)propanoyl)piperidine-4-carboxylic acid]
101% | N=C(N)Nc1ccc(C(=O)Oc2ccc(C3=NOC(CC(=O)O)(C(=O)O)C3)cc2)cc1 (stereo not drawn) [Example 2, 3-(4-((4-carba-mimidamidobenzoyl)oxy)phenyl)-5-(carboxymethyl)-4,5-dihydro-1,2-oxazole-5-carboxylic acid]
